The test deals with T1, α1L Receptor (Oryctolagus cuniculus, UniProt O02824).
T1 construct: A single rabbit aorta was cleaned of connective tissue, cut into rings; from tissue; host or cells: rabbit aorta rings
T1 sequence (O02824 1-466): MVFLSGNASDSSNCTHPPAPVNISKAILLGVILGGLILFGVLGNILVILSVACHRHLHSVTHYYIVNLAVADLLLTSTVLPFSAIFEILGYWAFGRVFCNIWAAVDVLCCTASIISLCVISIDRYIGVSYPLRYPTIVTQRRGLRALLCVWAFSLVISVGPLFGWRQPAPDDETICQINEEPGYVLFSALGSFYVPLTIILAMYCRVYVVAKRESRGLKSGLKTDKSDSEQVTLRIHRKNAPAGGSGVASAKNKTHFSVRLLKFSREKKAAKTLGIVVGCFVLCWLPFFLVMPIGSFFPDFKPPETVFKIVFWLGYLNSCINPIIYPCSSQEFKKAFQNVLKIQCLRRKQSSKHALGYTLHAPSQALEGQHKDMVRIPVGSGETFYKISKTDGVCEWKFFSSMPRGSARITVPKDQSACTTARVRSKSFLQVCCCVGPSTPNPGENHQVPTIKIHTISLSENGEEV
Nature of the test: Contractile responses of rabbit aorta (methoxamine-induced), antagonist pA2. The settings on record: rabbit aorta rings, methoxamine as agonist, 60 minutes with compound, Schild analysis; read-out: pA2 v α1L (converted). The procedure:
Contractile Responses of Rabbit Aorta (α1L Receptor)
A single rabbit aorta was cleaned of connective tissue, cut into rings ˜3 mm in length, then denuded of […] by rubbing very gently with a probe. The lengths of tissue are then mounted in the 5 mL organ baths, which contain the modified Krebs of the following composition (mM): NaCl (119), KCl (4.7), CaCl2 (2.5), KH2PO4 (1.2), MgSO4 (1.2), NaHCO3 (25), glucose (11), and gassed with 95% O2/5% CO2. The tissues are placed under ˜1.5 g tension, and are left to equilibrate for ˜60 minutes on a pump speed of ˜5 mL\minute, adjusting the tension to 1-1.5 g if necessary after 15 and 45 minutes. A 1M stock solution (1×10^−3M bath conc.) of methoxamine in water was made and 1:10 dilutions made using the same diluent. A sensitising dose of 120 mM KCl (bath concentration) was added to each bath. After the maximum response had been reached (usually about 6-8 minutes), the tissues are washed with Krebs solution for 60 minutes, pump speed at ˜2.97 mL/min. […]
The data was captured on ADA analysis in-vitro software, which expresses the readings as a % of the maximum response of the control curve, draws control and test compound dose response curves, and calculates a EC50 and then dose ratio (DR), the ratio between control and treatment curve EC50, for each treatment. […]

Regarding `COc1cc(C2CC2)c2c(=O)[nH]c(N3CCc4nc(CN5CCOCC5)ccc4C3)nc2c1` [Example 11, 5-Cyclopropyl-7-methoxy-2-(2-morpholin-4-ylmethyl-7,8-dihydro[1,6]-naphthyridin-6(5H)-yl)-4(3H)-quinazolinone], the Kb is 0.1 nM.
